Results: US11059842B2, “Monosaccharide amine and 3-nitro-2-phenyl-2H-chromene based inhibitors of glucose kinases” (UNIVERSITY OF SOUTH CAROLINA, priority 2019, dated 2021)
Several values for one entry are separate records, joined by “and”; a condition that tells them apart may be missing. Identical values can stand only once.

Tests used:
[1] = tested on: T. cruzi (Tulahuen strain) infective form (trypomastigote and amastigote life stages) co-cultured in NIH-3T3 fibroblasts; assay: T. cruzi infective form growth inhibition in NIH-3T3 fibroblasts; type: cell-based, Trypanosoma cruzi; conditions: Tulahuen strain infective form in NIH-3T3 fibroblasts; N = 3 (Amphotericin B control: 6 replicates)
Description: The curve and the IC50 were calculated from measurements determined in triplicate and expressed as percent growth inhibition of the T. cruzi parasite infection of mammalian cells.
Compounds were further screened against the T. cruzi (Tulahuen strain) infective form (trypomastigote and amastigote life stages) co-cultured in NIH-3T3 fibroblasts to establish IC50 values. Assays were performed in triplicate.
The single dose in vitro study included administration of the compounds in 80 μM inhibitor concentrations (N=3). Amphotericin B was used as a control.

[2] = biological target: Trypanosoma cruzi glucokinase (TcGlcK) (Trypanosoma cruzi (strain CL Brener), UniProt Q4E4E1); type: biochemical; conditions: percentage of inhibition at 20 μM of the compound; N = 1
Trypanosoma cruzi glucokinase (TcGlcK), sequence (Q4E4E1 1-376): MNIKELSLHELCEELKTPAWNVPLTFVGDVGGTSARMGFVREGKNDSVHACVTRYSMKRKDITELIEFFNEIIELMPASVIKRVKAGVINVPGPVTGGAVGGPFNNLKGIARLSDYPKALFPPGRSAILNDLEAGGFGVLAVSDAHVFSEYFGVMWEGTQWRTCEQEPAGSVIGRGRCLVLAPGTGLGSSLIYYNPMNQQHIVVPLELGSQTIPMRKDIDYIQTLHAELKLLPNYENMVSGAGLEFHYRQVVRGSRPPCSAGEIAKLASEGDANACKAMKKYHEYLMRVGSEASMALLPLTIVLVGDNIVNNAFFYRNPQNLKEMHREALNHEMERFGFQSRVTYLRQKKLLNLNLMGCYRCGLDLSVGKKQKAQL
Description: D-Glucose was also tested as a control with alternative substrates. The protein expression work for TcGlcK and HsHxKIV were each made possible through the E. coli strain BL21(DE3) system. Purification of each enzyme was performed through cobalt-NTA chromatography followed by size-exclusion chromatography; assessment of purity was performed by SDS-PAGE. […] A general reaction scheme included a first reaction in which the monosaccharide, ATP, and Mg^2+ react with the enzyme, e.g., TcGlcK, forming a hexose-phosphate and ADP. In a second reaction, hexose-phosphate with the assistance of glucose-6-phosphate dehydrogenase (G6PDH) and NADP^+ was converted to the lactone form of the hexose-phosphate and NADPH. Fluorescence of NADPH was monitored using a fluorescence microplate reader with […] wavelengths of 340 nm and 485 nm, respectively.
Michaelis-Menten constant (KM) values, which were used as the set final assay concentrations of substrates D-glucose and ATP for the primary screens, were determined for both TcGlcK and HsHxKIV in triplicate runs. […]
The cutoff percentage was calculated by using normalized percent inhibition that took into consideration the positive and negative controls of the fluorescence readout from a fluorescence microplate reader. In addition, an unconfirmed hit was selected if the activity measurement was three standard deviations away from the mean of the positive controls.

[3] = tested on: glucose-6-phosphate dehydrogenase (G6PDH); assay: G6PDH confirmatory assay (coupling enzyme counter-screen); type: biochemical; conditions: 20 μM compound; quadruplicate
Description: The 16 compounds showing substantial inhibition against TcGlcK at compound concentrations of 20 μM were then examined in a confirmatory assay in which the amino sugar analogues were at a concentration of 20 μM and were tested against the assay's only coupling enzyme, G6PDH, to verify enzyme activity; the assay was performed in quadruplicate. […] These confirmed hits included representatives from all three monosaccharide scaffolds tested (i.e., D-GlcN, D-ManN, and D-GalN).

[4] = biological target: Homo sapiens hexokinase IV (HsHxKIV) (Homo sapiens (Human), UniProt P35557); assay: HsHxKIV enzyme-inhibition screening assay (Example 1); type: biochemical; conditions: 20 μM compound; N = 1
Homo sapiens hexokinase IV (HsHxKIV), sequence (P35557 whole entry): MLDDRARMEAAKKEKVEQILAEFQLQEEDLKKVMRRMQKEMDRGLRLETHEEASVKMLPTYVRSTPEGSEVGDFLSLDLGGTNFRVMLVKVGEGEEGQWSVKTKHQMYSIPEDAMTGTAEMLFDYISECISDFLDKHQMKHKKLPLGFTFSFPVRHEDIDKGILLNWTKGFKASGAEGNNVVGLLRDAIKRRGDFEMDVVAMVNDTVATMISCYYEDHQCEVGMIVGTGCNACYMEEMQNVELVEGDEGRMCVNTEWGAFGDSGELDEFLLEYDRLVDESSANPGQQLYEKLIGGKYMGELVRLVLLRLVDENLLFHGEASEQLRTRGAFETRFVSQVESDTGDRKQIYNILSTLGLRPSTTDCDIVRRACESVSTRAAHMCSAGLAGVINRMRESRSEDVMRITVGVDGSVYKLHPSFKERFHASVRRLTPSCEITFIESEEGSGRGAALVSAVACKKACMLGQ
Description: (§1) D-Glucose was also tested as a control with alternative substrates. The protein expression work for TcGlcK and HsHxKIV were each made possible through the E. coli strain BL21(DE3) system. Purification of each enzyme was performed through cobalt-NTA chromatography followed by size-exclusion chromatography; assessment of purity was performed by SDS-PAGE. In enzymatic assays, a time-optimum (TOPT) was determined to be 120 seconds for TcGlcK and 600 seconds for HsHxKIV; all assays were run at room temperature. A general reaction scheme included a first reaction in which the monosaccharide, ATP, and Mg^2+ react with the enzyme, e.g., TcGlcK, forming a hexose-phosphate and ADP. In a second reaction, hexose-phosphate with the assistance of glucose-6-phosphate dehydrogenase (G6PDH) and NADP^+ was converted to the lactone form of the hexose-phosphate and NADPH. Fluorescence of NADPH was monitored using a fluorescence microplate reader with […] wavelengths of 340 nm and 485 nm, respectively.
(§2) FIG. 4 and FIG. 5 present typical Michaelis-Menten enzyme kinetic plots for D-glucose. As shown, the NADP^+ to NADPH turnover rate is a function of [D-glucose] & [ATP] for TcGlcK (FIG. 4) and HsHxKIV (FIG. 5) absent inhibition. Michaelis-Menten constant (KM) values, which were used as the set final assay concentrations of substrates D-glucose and ATP for the primary screens, were determined for both TcGlcK and HsHxKIV in triplicate runs. The KM values for TcGlcK with respect to D-glucose and ATP were 0.40 mM and 0.34 mM, respectively. The KM values for HsHxKIV with respect to D-glucose and ATP were 43 mM and 0.20 mM, respectively.

TcGlcK [5] = biological target: T1, TcGlcK (Trypanosoma cruzi (strain CL Brener), UniProt Q4E4E1); assay: Primary assay screen of TcGlcK, normalized percent inhibition (Example 2); type: biochemical; conditions: triplicate
T1 sequence (Q4E4E1 1-376): as the sequence (Q4E4E1 1-376) above
Description: (§3) Primary assay screens of TcGlcK, LbGlcK, and HsHxKIV against the 3-nitro-2-phenyl-2H-chromene-based inhibitors compound nos. 19-22 were carried out. Compound 1, Benzoyl glucosamine (BENZ-GlcN or simply “BENZ”) and carboxybenzyl glucosamine (CBZ-GlcN or simply “CBZ”) were both used as controls due to their known inhibition against TcGlcK. LbGlcK was chosen to be tested against these compounds due to its 44% protein sequence similarity to TcGlcK.
(§4) All screens were done in triplicate and were analyzed using normalized percent inhibition (NPI) calculations. NPI calculations rely on positive and negative assay controls within the screen to account for any fluctuations in the fluorescence measurements.
(§5) The NPI for a compound to be considered a “hit” against TcGlcK required a value exceeding 60.5% inhibition in the primary screen. All four compounds ([…]) qualified as hits based off of this parameter. LbGlcK required compounds to be above 12.6% inhibition in its primary screen; all four compounds were also qualified as hits.

HsHxKIV = HsHxKIV (Homo sapiens (Human), UniProt P35557); assay: Primary assay screen of HsHxKIV, normalized percent inhibition (Example 2); type: biochemical; conditions: triplicate
HsHxKIV, sequence (P35557 whole entry): as the sequence (P35557 whole entry) above
Description: as §3, §4, §5

T. brucei = T. brucei in vitro screen; type: cell-based; conditions: Trypanosoma brucei; average; concentrations up to 10 μM, N=3
Description: Compounds 19-31 were screened against T. brucei. The single dose in vitro study included administration of the compounds in increasing concentrations up to 10 μM (N=3 for each compound concentration value). Media and T. bricei+0.5% SDS were used as control.

TcGlcK [6] = biological target: T1, TcGlcK; assay: TcGlcK Michaelis-Menten kinetics and substrate range; type: biochemical
Description: as §1, §2
All phosphorylated hexoses were shown getting converted into their corresponding products by G6PDH, in abundant quantities through a 30-second time frame. This permitted the standard TcGlcK […] assay, which was timed for […], to be used as an assay to analyze alternative substrates.

| Compound | IC50 [1] | TcGlcK Inh20 (%) [2] | G6PDH Inh20 (%) [3] | HsHxKIV Inh20(%) [4] | also measured |
| --- | --- | --- | --- | --- | --- |
| C[C@@H]1[C@H](O)[C@@H](C)/C=C/C=C/C=C/C=C/C=C/C=C/C=C/[C@H](O[C@@H]2O[C@H](C)[C@@H](O)[C@H](N)[C@@H]2O)C[C@@H]2O[C@](O)(C[C@@H](O)C[C@@H](O)[C@H](O)CC[C@@H](O)C[C@@H](O)CC(=O)O[C@H]1C)C[C@H](O)[C@H]2C(=O)O [Amphotericin B, reference compound] | 1.08 ± 0.84 µM | – | – | – | – |
| O=C(N[C@H]1C(O)O[C@H](CO)[C@@H](O)[C@@H]1O)c1cccc(Br)c1 (stereo partly drawn) [Compound 2] | 66.2 ± 3.83 µM | 57% | 0.0 ± 0.0% | 31% | – |
| O=C(N[C@H]1C(O)O[C@H](CO)[C@@H](O)[C@@H]1O)c1ccc(CCl)cc1 (stereo partly drawn) [Compound 3] | 52.9 ± 2.72 µM | 42% | 0.0 ± 0.0% | 35% | – |
| O=C(N[C@H]1C(O)O[C@H](CO)C(O)[C@@H]1O)c1ccoc1 (stereo partly drawn) [Compound 6] | 49.9 ± 2.99 µM | 51% | 0.0 ± 0.0% | 41% | – |
| O=C(N[C@@H]1C(O)O[C@H](CO)[C@@H](O)[C@@H]1O)c1ccccc1 (stereo partly drawn) [Compound 7] | 43.5 ± 0.68 µM | 71% | 0.0 ± 0.0% | 55% | – |
| O=C(N[C@@H]1C(O)O[C@H](CO)[C@@H](O)[C@@H]1O)c1cccc(Br)c1 (stereo partly drawn) [Compound 8] | 38.4 ± 1.4 µM | 35% | 0.0 ± 0.0% | 27% | – |
| O=C(N[C@@H]1C(O)O[C@H](CO)[C@@H](O)[C@@H]1O)c1ccc(CCl)cc1 (stereo partly drawn) [Compound 9] | 38.4 ± 1.41 µM | 33% | 0.0 ± 0.0% | 28% | – |
| O=C(N[C@@H]1C(O)O[C@H](CO)[C@@H](O)[C@@H]1O)c1cc2ccccc2o1 (stereo partly drawn) [Compound 11] | 42.5 ± 6.5 µM | 10% | – | 12% | – |
| O=C(N[C@@H]1C(O)O[C@H](CO)[C@@H](O)[C@@H]1O)c1ccoc1 (stereo partly drawn) [Compound 12] | 67.5 ± 1.75 µM | 58% | 0.0 ± 0.0% | 32% | – |
| O=C(N[C@H]1C(O)O[C@H](CO)[C@H](O)[C@@H]1O)c1ccccc1 (stereo partly drawn) [Compound 13] | 55.3 ± 11.9 µM | 59% | 0.0 ± 0.0% | 38% | – |
| O=C(N[C@H]1C(O)O[C@H](CO)[C@H](O)[C@@H]1O)c1cccc(Br)c1 (stereo partly drawn) [Compound 14] | 19.9 µM | 31% and 30.8% | 0.0 ± 0.0% | 30% | – |
| O=C(N[C@H]1C(O)O[C@H](CO)[C@H](O)[C@@H]1O)c1ccc(CCl)cc1 (stereo partly drawn) [Compound 15] | 37.9 ± 4.77 µM | 27% | – | 8% | – |
| Cc1ccc(C(=O)N[C@H]2C(O)O[C@H](CO)[C@H](O)[C@@H]2O)o1 (stereo partly drawn) [Compound 16] | 20.2 µM | 30% | 0.0 ± 0.0% | 41% | – |
| O=C(N[C@H]1C(O)O[C@H](CO)[C@H](O)[C@@H]1O)c1cc2ccccc2o1 (stereo partly drawn) [Compound 17] | 66.6 ± 13.7 µM | 39% | 0.0 ± 0.0% | 37% | – |
| O=C(N[C@H]1C(O)O[C@H](CO)[C@H](O)[C@@H]1O)c1ccoc1 (stereo partly drawn) [Compound 18] | 36.4 ± 1.47 µM | 56% | 0.0 ± 0.0% | 47% | – |
| O=[N+]([O-])C1=Cc2ccccc2O[C@H]1c1ccccc1Cl [Compound 21] | – | – | – | – | NPI (%) TcGlcK (TcGlcK [5]): 54.7%; NPI (%) HsHxKIV (HsHxKIV): 51.8% |
| CCOc1ccc(C2Oc3ccc(Br)cc3C=C2[N+](=O)[O-])cc1OC (stereo not drawn) [Compound 23, 6-Bromo-2-(4-ethoxy-3-methoxyphenyl)-3-nitro-2H-chromene] | – | – | – | – | IC50 (T. brucei): 0.614 µM |
| COc1ccc(C2Oc3c(cc(Br)cc3OC)C=C2[N+](=O)[O-])cc1OC (stereo not drawn) [Compound 25, 6-Bromo-2-(3,4-dimethoxyphenyl)-8-methoxy-3-nitro-2H-chromene] | – | – | – | – | IC50 (T. brucei): 0.515 µM |
| COc1ccc(C2Oc3ccc(Br)cc3C=C2[N+](=O)[O-])cc1OC (stereo not drawn) [Compound 26, 6-Bromo-2-(3,4-dimethoxyphenyl)-3-nitro-2H-chromene] | – | – | – | – | IC50 (T. brucei): 0.435 µM |
| COc1ccc(C2Oc3c(Br)cc(Br)cc3C=C2[N+](=O)[O-])cc1OC (stereo not drawn) [Compound 27, 6,8-Dibromo-2-(3,4-dimethoxyphenyl)-3-nitro-2H-chromene] | – | – | – | – | IC50 (T. brucei): 0.416 µM |
| CCOc1ccc(C2Oc3c(Br)cc(Br)cc3C=C2[N+](=O)[O-])cc1OC (stereo not drawn) [Compound 28, 6,8-Dibromo-2-(4-ethoxy-3-methoxyphenyl)-3-nitro-2H-chromene] | – | – | – | – | IC50 (T. brucei): 0.356 µM |
| CCOc1ccc(C2Oc3c(cc(Br)cc3OC)C=C2[N+](=O)[O-])cc1OC (stereo not drawn) [Compound 29, 6-Bromo-2-(4-ethoxy-3-methoxyphenyl)-8-methoxy-3-nitro-2H-chromene] | – | – | – | – | IC50 (T. brucei): 0.743 µM |
| CCOc1ccc(C2Oc3c(Cl)cc(Cl)cc3C=C2[N+](=O)[O-])cc1OCC (stereo not drawn) [Compound 30, 6,8-Dichloro-2-(3,4-diethoxyphenyl)-3-nitro-2H-chromene] | – | – | – | – | IC50 (T. brucei): 0.664 µM |
| O=C(CO)[C@@H](O)[C@H](O)[C@H](O)CO [D-fructose] | – | – | – | – | increase of TcGlcK activity from 15 mM to 50 mM substrate (TcGlcK [6]): 2.58 fold; TcGlcK activity relative to D-glucose (100%) (TcGlcK [6]; substrate concentration 15 mM): 18.9%; TcGlcK activity relative to D-glucose (100%) (TcGlcK [6]; substrate concentration 50 mM): 48.8% |
| O=C[C@H](O)[C@@H](O)[C@@H](O)[C@H](O)CO [D-galactose] | – | – | – | – | TcGlcK activity relative to D-glucose (100%) (TcGlcK [6]; substrate concentration 15 mM): 0.00%; TcGlcK activity relative to D-glucose (100%) (TcGlcK [6]; substrate concentration 50 mM): 0.00% |
| O=C[C@@H](O)[C@@H](O)[C@H](O)[C@H](O)CO [D-mannose] | – | – | – | – | increase of TcGlcK activity from 15 mM to 50 mM substrate (TcGlcK [6]): 2.69 fold; TcGlcK activity relative to D-glucose (100%) (TcGlcK [6]; substrate concentration 15 mM): 6.18%; TcGlcK activity relative to D-glucose (100%) (TcGlcK [6]; substrate concentration 50 mM): 16.6% |
